Laboratory results published in paper PMC9283466, “In silico identification of two peptides with antibacterial activity against multidrug-resistant Staphylococcus aureus” (NPJ Biofilms and Microbiomes, 2022).
Bridge positions count the residues as written; N and C are the ends. Peptide text beside a SMILES is read from it.

Legend:
[1] = system: LTA-driven NF-kB activation, eLUCidate Raw 264.7 NF-kB reporter cell line; experiment: Anti-inflammatory activity, NF-kB luciferase reporter; assay type: cell-based, murine; details: 10 µg/ml LTA from S. aureus, 6 h
Method: (§1) The inhibitory activity of HG2, HG4 and comparator compounds against LPS and LTA was assessed using eLUCidate™ Raw 264.7 NF-kB reporter cell line (AMSBIO) as previously described. The eLUCidate NF-kB reporter cell line is a stably transfected Raw 264.7 cell line which expresses the Renilla luciferase reporter gene under the transcriptional control of the NF-kB response element, a key transcription factor involved in immune and inflammatory responses. This reporter cell line has been used to measure the induction of various toll-like receptors (TLR) by ligands, including LPS and LTA, therefore providing an effective way to evaluate inhibitors of their activations. Briefly, cells were grown and maintained following the manufacturer’s instructions in Dulbecco’s modified essential medium (DMEM) supplemented with 10% fetal calf serum (FCS), 1% L-glutamine, 1% antibiotics (Invitrogen) and containing 3 µg/ml of puromycin (Sigma-Aldrich, UK). To test the inhibitory activity of HG2 and HG4 on LPS or LTA-driven NF-kB activation, eLUCidate™ Raw 264.7 cells grown on 75 cm^2 flasks were detached using trypsin-EDTA solution (Thermofisher, UK) and seeded into 96-well cell culture plates (Greiner Bio-one, UK) at ~25,000 cells per well (counted using Mallasez’s chamber). The next day, wells were emptied, and cells were exposed to optimal concentrations of LPS or LTA determined from preliminary experiments, (i.e. 10 ng/ml of LPS from E. coli or 10 µg/ml of LTA from S. aureus (Invivogen, UK)) in the presence of increasing concentrations of HG2 or HG4 (from 0 to 500 µg/ml, serial 1:2 dilutions). Pyrrolidine dithiocarbamate (PDTC, 100 µM) and polymyxin B (PMB, 100 µM) (Sigma-Aldrich, UK) were used as positive controls based on their well-known activity as anti-inflammatory molecules and blockers/neutralisers of LPS and LTA, respectively. Importantly, all steps were performed using non-pyrogenic plastics and RNase/DNase molecular biology tips to limit the risk of the presence of a trace of LPS/LTA. After 6 h incubation at 37 °C and 5% CO2, wells were emptied, and the cells were treated with 70 µl of ice-cold PBS containing 1% Triton X-100. After 10 min incubation on ice under orbital shaking at 200 rpm, 50 µL of cell lysates were collected and transferred into white 96-well luminescence plates (Dominique Dutscher) already containing 100 µL of Renilla luciferase substrate (Yelen, France). Luminescence signals of the wells were immediately measured using a microplate reader (Biotek Synergy Mx, UK). The luminescence values were expressed as a percentage of control inflammation corresponding to values obtained after treatment with LPS or LTA in the absence of an inhibitor. The IC50 values of PDTC, PMB, HG2 or HG4 on LPS or LTA-mediated inflammation (i.e. the concentration of molecule causing a reduction of 50% of the luciferase’s induction caused by LPS or LTA) were calculated using GraphPad® Prism 7 software.

[2] = system: LPS-driven NF-kB activation, eLUCidate Raw 264.7 NF-kB reporter cell line; experiment: as above; assay type: cell-based, murine; details: 10 ng/ml LPS from E. coli, 6 h
Method: as §1

[3] = Peptide-lipid interaction and insertion, lipid monolayer; assay type: binding, S. aureus; details: LTA; for Speed of insertion: initial surface pressure 30+/-0.5 mN/m; for Critical pressure of insertion πc: peptide 1 µg/mL
Method: (§2) Peptide–lipid interaction was measured using a lipid monolayer formed at the air:water interface with total lipid extracts and pure lipids. Total lipids were extracted from overnight cultures of MRSA or human erythrocytes using the Folch extraction procedure[14],[40]. Extracted total lipids were dried, re-solubilised in chloroform:methanol (2:1, v/v) and stored at −20 °C under nitrogen. Pure prokaryotic and eukaryotic lipids used were: cardiolipin, POPC (1-palmitoyl-2-oleoyl-glycero-3-phosphocholine), POPE (1-palmitoyl-2-oleoyl-sn-glycero-3-phosphoethanolamine) and POPG (1-palmitoyl-2-oleoyl-sn-glycero-3-phospho-(1’-rac-glycerol) (Avanti Polar Lipid). LTA (Lipoteichoic acid from S. aureus) and LPS (lipopolysaccharide from E. coli) (Invitrogen, UK) were also tested. Pure lipids were reconstituted in chloroform:methanol (2:1 v/v) at 1 mg/ml and stored at −20 °C under nitrogen. For peptide–lipid interaction assay, lipid monolayers at the air:water interface were formed by spreading total lipid extract or pure lipids at the surface of 800 µl of sterile PBS using a 50 µl Hamilton’s syringe. Lipids were added until the surface pressure reached the desired value. After 5–10 min of incubation allowing the evaporation of the solvent and stabilisation of the initial surface pressure, 8 µl of HG2 or HG4 diluted in sterile PBS at 100 µg/ml were injected into the 800 µl sub-phase of PBS under the lipid monolayer (pH 7.4, volume 800 µl) using a 10 µl Hamilton’s syringe giving a final concentration of peptide of 1 µg/ml, as preliminary experiments had shown that this concentration was optimal. The variation of the surface pressure caused by peptide insertion was then continuously monitored using a fully automated microtensiometer (µTROUGH SX, Kibron Inc, Finland) until it reached equilibrium (maximal surface pressure increase is usually obtained after 15–25 min). To reflect physiological situations, the initial surface pressure was fixed at 30 ± 0.5 mN/m in some experiments as this value corresponds to a lipid packing density theoretically equivalent to that of the outer leaflet of the eukaryotic and prokaryotic cell membrane. In other experiments, the critical pressure of insertion of HG2 or HG4 in the total lipid extracts and pure lipids was measured as follows[14],[56]. Briefly, in these experiments, the initial pressure of the lipid monolayer was set up at different values (between 10 and 30 mN/m) and the variation of pressure caused by the injection of the peptide was measured. […] All experiments were carried out in a controlled atmosphere at 20 ± 1 °C and data were analyzed using the Firmware 2.5 programme (Kibron Inc.). The accuracy of the system under our experimental conditions was determined to be ±0.25 mN/m for surface pressure measurements.

MRSA USA300 cells = experiment: Time-kill kinetics; assay type: cell-based, Staphylococcus aureus; details: 3x MIC; for reduction in viable cells (time-kill): within the first 10 min, logarithmic-phase MRSA USA300; for time to complete cell death: no recovery observed after 24 h
Method: The bactericidal activity of HG2, HG4 and comparator antimicrobial compounds was assessed using exponential-phase cultures[14] of MRSA USA300 grown in MHB (1 × 10^6-8 CFU/ml). […] Samples were taken at different time points, serially diluted and inoculated onto MH agar plates using the spread plate technique. After overnight incubation, the colony-forming units per millilitre of cell culture (CFU/ml) was calculated. Experiments were performed in quadruplicates.

[4] = Peptide-lipid interaction and insertion, lipid monolayer; assay type: binding, human; details: Erythrocyte extract; initial surface pressure 30+/-0.5 mN/m
Method: Peptide–lipid interaction was measured using a lipid monolayer formed at the air:water interface with total lipid extracts and pure lipids. Total lipids were extracted from overnight cultures of MRSA or human erythrocytes using the Folch extraction procedure[14],[40]. Extracted total lipids were dried, re-solubilised in chloroform:methanol (2:1, v/v) and stored at −20 °C under nitrogen. […] The variation of the surface pressure caused by peptide insertion was then continuously monitored using a fully automated microtensiometer (µTROUGH SX, Kibron Inc, Finland) until it reached equilibrium (maximal surface pressure increase is usually obtained after 15–25 min). […] In other experiments, the critical pressure of insertion of HG2 or HG4 in the total lipid extracts and pure lipids was measured as follows[14],[56]. Briefly, in these experiments, the initial pressure of the lipid monolayer was set up at different values (between 10 and 30 mN/m) and the variation of pressure caused by the injection of the peptide was measured. […] All experiments were carried out in a controlled atmosphere at 20 ± 1 °C and data were analyzed using the Firmware 2.5 programme (Kibron Inc.). The accuracy of the system under our experimental conditions was determined to be ±0.25 mN/m for surface pressure measurements.

[5] = as above; assay type: binding, E. coli; details: LPS; for Speed of insertion: initial surface pressure 30+/-0.5 mN/m; for Critical pressure of insertion πc: peptide 1 µg/mL
Method: as §2

SMILES | IC50, LTA-mediated inflammation [1] [µg/mL] | IC50, LPS-mediated inflammation [2] [µg/mL] | Speed of insertion [3] [mN/m/10 sec] | Critical pressure of insertion πc [3] [mN/m] | reduction in viable cells (time-kill) (MRSA USA300 cells) [log10 CFU/ml] | time to complete cell death (MRSA USA300 cells) [min] | Speed of insertion [4] [mN/m/10 sec] | Speed of insertion [5] [mN/m/10 sec] | Critical pressure of insertion πc [5] [mN/m]
CC[C@H](C)[C@H](NC(=O)[C@H](CC(C)C)NC(=O)[C@H](CC(C)C)NC(=O)[C@H](CC(C)C)NC(=O)[C@H](CCCCN)NC(=O)[C@H](CCCCN)NC(=O)[C@@H](N)CCSC)C(=O)N[C@@H](CC(C)C)C(=O)N[C@@H](Cc1ccccc1)C(=O)N[C@H]1CSSC[C@@H](C(=O)N[C@@H](CCCCN)C(=O)N[C@@H](CCCCN)C(=O)N[C@@H](C)C(=O)N2CCC[C@H]2C(N)=O)NC(=O)CNC(=O)[C@H](C)NC(=O)[C@H](CC(C)C)NC(=O)[C@H](C)NC(=O)[C@H](CC(C)C)NC(=O)[C@H](C)NC(=O)[C@H](CC(C)C)NC1=O [HG2] (H-MKKLLLILFCLALALAGCKKAP-NH2; disulfide 10-18; N-terminus assumed) | 91.49 ± 6.03 | 73.99 ± 3.40 | 0.80 | 47.81 | > 3 | ≤ 10 | 1.13 | 0.43 | 36.03
CC[C@H](C)[C@H](NC(=O)[C@H](CC(C)C)NC(=O)[C@H](CC(C)C)NC(=O)[C@H](C)NC(=O)CNC(=O)CNC(=O)[C@@H](NC(=O)[C@@H](NC(=O)[C@H](CC(C)C)NC(=O)[C@H](C)NC(=O)[C@H](CC(C)C)NC(=O)CNC(=O)[C@H](CC(C)C)NC(=O)[C@@H](N)C(C)C)[C@@H](C)CC)C(C)C)C(=O)N[C@@H](CCCCN)C(=O)N[C@@H](CCCCN)C(=O)N[C@@H](CCCCN)C(=O)N[C@@H](CCC(N)=O)C(=O)N[C@@H](C)C(=O)N[C@@H](CCCCN)C(=O)N[C@@H](CO)C(N)=O [HG4] (H-VLGLALIVGGALLIKKKQAKS-NH2; N-terminus and C-terminus assumed) | 26.45 ± 3.11 | 113.80 ± 5.00 | 0.39 | 40.04 | > 6 | ≤ 10 | 1.20 | 0.31 | 34.08
